Patent publication US20240262817A1, “QUINAZOLINE DERIVATIVES TARGETING R(CCUG) REPEATS IN MYOTONIC DYSTROPHY TYPE 2” (University of Florida Research Foundation, Incorporated, priority 2021, published 2024)

What was measured:
r(CCUG)12 = assay: Microscale thermophoresis (MST) affinity for r(CCUG)12; assay type: binding; conditions: read-out: Kd,app for r(CCUG)12
Procedure: (§1) Affinity measurements: Binding affinity measurements were performed via microscale thermophoresis (MST) on a Monolith NT.115 system (NanoTemperTechnologies) with Cy5-labeled (CCUG)12 (SEQ ID NO: 15) (5′-Cy5-GCG(CCUG)12CGC. SEQ ID NO:13; Dharmacon) and Cy5-labeled base pair control (BP; 5′-Cy5-GCG(CCUG)(GCAG)5CGC, SEQ ID NO:14; Dharmacon), which were deprotected according to the manufacturer's protocol and then desalted using a PD-10 column (GE LifeSciences) per the manufacturer's recommended procedure. RNA (5 nM) was prepared in 8 mM Na2HPO4, 185 mM NaCl, 1 mM EDTA and folded by heating at 60° C. for 5 min and slowly cooling to room temperature. Compound 1:1 dilution was prepared using 1×MST Buffer (8 mM Na2HPO4, 185 mM NaCl, 1 mM EDTA) and 0.1% (v/v) Tween-20 was added. After cooling the RNA solution was added to the compound solution (0.05% (v/v) Tween-20 final concentration). Samples were incubated for 30 min at room temperature and then loaded into standard capillaries (NanoTemper Technologies). […] Fluorescence was detected using excitation wavelengths of 605-645 nm and emission wavelengths of 680-685 nm. The resulting data were analyzed by thermophoresis analysis and fitted using a quadratic binding equation in the MST analysis software (NanoTemper Technologies). Dissociation constants were then determined using equation 3. […]

[1] = molecular target: base-paired RNA that does not contain internal loops; assay: Microscale thermophoresis (MST) affinity for base pair control RNA; assay type: binding
Procedure: as §1

[2] = system: r(CCUG)exp-MBNL1 nuclear foci in DM2 patient-derived fibroblasts; assay: Nuclear foci by RNA FISH and MBNL1 immunofluorescence; assay type: cell-based; parameters: dose or concentration left out as unconfirmed
Procedure: Cell lines and cell culture: Compounds were tested in two cell lines: (i) DM2 patient-derived fibroblasts (generous gift from University of Florida, Center for NeuroGenetics) and (ii) fibroblasts from a healthy donor (wild-type; WT GM07492; Coriell Institute). Cells were maintained at 37° ° C. with 5% CO2. DM2 fibroblasts were cultured in DMEM/high glucose (HyClone) supplemented with 20% FBS (Sigma) and 1% Antibiotic-Antimycotic solution (Corning). Wild-type fibroblasts were cultured in MEM (Corning) supplemented with 10% FBS, 1% Glutagro (Corning), and 1% Antibiotic-Antimycotic solution.
Evaluation of nuclear foci via RNA fluorescence in situ hybridization (FISH): RNA FISH was used to determine the small molecules' effects on the number of nuclear foci as previously described.^10 The number of foci were counted in 40 nuclei/replicate (120 total nuclei counted); n=3 replicates; 1 independent experiment.

Kd (r(CCUG)12): 0.192 ± 0.02 µM | Kd [1]: > 20 µM | binding to base-paired RNA that does not contain internal loops [1]: no binding was observed
Compound: Cc1ccc2nc(Nc3ccc4nc(C)sc4c3)nc(NCCCO)c2c1 [Compound 63, 3-((6-methyl-2-((2-methylbenzo[d]thiazol-6-yl)amino)quinazolin-4-yl)amino)propan-1-ol]
reduction of number of nuclear foci per cell ([2]; 63 vs untreated): ~30% | number of r(CCUG)exp-MBNL1 nuclear foci per cell ([2]; untreated 7±1): 5±0.5
